Assay results published in patent EP1322622B1, “NEW N, N'-DISUBSTITUTED BENZIMIDAZOLONE DERIVATIVES WITH AFFINITY AT THE SEROTONIN AND DOPAMINE RECEPTORS” (Sprout Pharmaceuticals, Inc., priority 2000, dated 2002).

Key:
[1] = biological target: T1, D4 human receptors (Homo sapiens, UniProt P21917); assay: D4 Radioligand Receptor Binding Assay ([3H] YM-09151-2, CHO cell membranes); conditions: compound at 10^-7 M, singlicate; [3H] YM-09151-2 0.15-0.25 nM; read-out: D4 receptor binding assay % inhib. (10^-7 M)
T1 construct: expressed in transfected cells; host or cells: CHO cells
T1 sequence (P21917 1-419): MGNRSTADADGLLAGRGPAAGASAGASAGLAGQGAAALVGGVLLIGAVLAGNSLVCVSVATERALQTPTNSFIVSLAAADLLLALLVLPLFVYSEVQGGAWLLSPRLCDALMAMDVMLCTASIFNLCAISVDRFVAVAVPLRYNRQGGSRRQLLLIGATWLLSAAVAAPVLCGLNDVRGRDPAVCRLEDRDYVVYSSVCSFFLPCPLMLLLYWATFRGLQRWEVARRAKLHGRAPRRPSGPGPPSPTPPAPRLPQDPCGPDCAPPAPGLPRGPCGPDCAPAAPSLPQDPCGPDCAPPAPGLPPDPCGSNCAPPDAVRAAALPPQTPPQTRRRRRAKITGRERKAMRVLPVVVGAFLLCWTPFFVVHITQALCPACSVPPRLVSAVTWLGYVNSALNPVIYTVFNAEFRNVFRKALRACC
Experimental: Membranes from CHO cells, expressing D4 human receptors were suspended in incubation buffer.
Binding assays were performed in MultiProbe 204 pipetting system (Packard), according to a predetermined mapping, consistent with the software Screen. The compounds were tested in singlicate at one concentration (10^-7 M) in a total volume of 1000 µl (980 µl of diluted membranes, 10 µl DMSO or unlabelled ligand and 10 µl of [^3H] YM-09151-2 (0.15-0.25 nM). After incubation for 120 min at 27 °C, the reaction was stopped by rapid filtration through Tomtec cell Harvester (48 wells) using Filtermat B (presoaked in 0.1% PEI) filters. Filters were washed with ice-cold 50 mM Tris-HCl (pH 7.4) buffer (9 x 700 µl), dryed, covered with MeltiLex B/HS (Wallac) scintillator sheets and heated in oven at 80-90 °C for about 10 min, transferred into plastic sample bags (Wallac), sealed and put into 1024 Beta Plate scintillation counter (Wallac). Non specific binding was determined in the presence of clozapine dissolved in DMSO to a final concentration of 10^-5 M.
(§1) The specific radioligand binding to the receptor was defined by the difference between total binding and non specific binding, determined in the presence of an excess of unlabelled ligand. Results were expressed as percentage of control specific binding obtained in the presence of the compounds.

[2] = biological target: T2, 5-HT1A human receptors (Homo sapiens, UniProt P08908); assay: 5-HT1A Radioligand Receptor Binding Assay ([3H]-8-OH-DPAT, CHO cell membranes); conditions: compound at 10^-7 M, singlicate; [3H]-8-OH-DPAT 0.6-0.7 nM; read-out: 5-HT1A receptor binding assay % inhib. (10^-7 M)
T2 construct: expressed in transfected cells; host or cells: CHO cells
T2 sequence (P08908 1-422): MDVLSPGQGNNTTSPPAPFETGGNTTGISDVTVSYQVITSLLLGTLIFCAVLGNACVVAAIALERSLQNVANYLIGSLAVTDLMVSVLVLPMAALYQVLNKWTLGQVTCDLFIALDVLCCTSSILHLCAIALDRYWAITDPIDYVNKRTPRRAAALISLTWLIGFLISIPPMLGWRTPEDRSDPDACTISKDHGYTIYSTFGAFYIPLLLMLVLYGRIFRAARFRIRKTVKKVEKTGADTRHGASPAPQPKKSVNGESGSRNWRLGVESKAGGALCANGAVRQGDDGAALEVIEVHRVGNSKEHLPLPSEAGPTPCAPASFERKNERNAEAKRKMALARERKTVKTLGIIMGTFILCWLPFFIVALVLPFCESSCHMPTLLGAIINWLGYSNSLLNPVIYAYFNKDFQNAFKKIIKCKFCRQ
Experimental: Membranes from CHO cells, expressing 5-HT1A human receptors were suspended in incubation buffer.
The compounds were tested in singlicate at one concentration (10^-7 M) in a total volume of 1000 µl. 980 µl of diluted membranes, 10 µl DMSO or unlabelled ligand and 10 µl of [^3H]-8-OH-DPAT (0.6-0.7 nM) were incubated for 60 min at 27 °C. The reaction was stopped by rapid filtration through Tomtec cell Harvester (48 wells) using Filtermat B (presoaked in 0.1% PEI) filters. […] Non specific binding was determined in the presence of 5-HT (10^-5 M).
as §1
The affinity values (IC50) for the compounds were obtained by a non linear least squares regression analysis on the basis of a one binding site model.

| Compound | inhibition at 0.1 µM [1] | inhibition at 0.1 µM [2] |
| --- | --- | --- |
| COCCn1c(=O)n(C/C=C\CN2CCN(c3ccc(Cl)c(Cl)c3)CC2)c2ccccc21 [compound 286] | 87% | 65% |
| O=c1n(CCO)c2ccccc2n1CCCCN1CCN(c2ccc(Cl)c(Cl)c2)CC1 [compound 66] | 99% | 65% |
| CS(=O)(=O)NCCn1c(=O)n(C/C=C\CN2CCN(c3ccc(Cl)c(Cl)c3)CC2)c2ccccc21 [compound 505] | 58% | 78% |
| O=c1n(CCO)c2ccccc2n1CCCCN1CCc2c([nH]c3ccccc23)C1 [compound 62] | 96% | 73% |
| COc1ccccc1N1CCN(C/C=C/Cn2c(=O)n(CCNS(C)(=O)=O)c3ccccc32)CC1 [compound 535] | 39% | 97% |
| O=c1n(C/C=C\CN2CCN(c3ccccn3)CC2)c2ccccc2n1CCO [compound 364] | 36% | 77% |
| CCNC(=O)OCCn1c(=O)n(C/C=C\CN2CCN(c3ccccc3)CC2)c2ccccc21 [compound 395] | 32% | 86% |
| O=c1n(CCN2CCOCC2)c2ccccc2n1CCN1CCN(c2cccc(Cl)c2)CC1 [compound 224] | 51% | 98% |
| O=c1n(CCO)c2ccccc2n1CCCCN1CC=C(c2ccccc2)CC1 [compound 65] | 74% | 52% |
| CS(=O)(=O)NCCn1c(=O)n(C/C=C/CN2CCN(c3ccc(Cl)c(Cl)c3)CC2)c2ccccc21 [compound 527] | 36% | 73% |
| CCNC(=O)OCCn1c(=O)n(CCN2CCN(c3ccccc3OC)CC2)c2ccccc21 [compound 216] | 44% | 92% |
| O=c1n(CCN2CC=C(c3ccccc3)CC2)c2ccccc2n1CCN1CCOCC1 [compound 229] | 34% | 67% |
| O=c1n(C/C=C\CN2CCc3c([nH]c4ccccc34)C2)c2ccccc2n1CCO [compound 367] | 90% | 61% |
| COc1ccccc1N1CCN(CCn2c(=O)n(CCN3CCCCC3)c3ccccc32)CC1 [compound 159] | 50% | 85% |
| CCNC(=O)OCCn1c(=O)n(C/C=C/CN2CCN(c3ccccc3)CC2)c2ccccc21 [compound 412] | 39% | 93% |
| COCCn1c(=O)n(CC=CCN2CCN(c3cccc(Cl)c3)CC2)c2ccccc21 [compound 280] | 38% | 93% |
| COCCn1c(=O)n(C/C=C/CN2CCN(c3ccc(Cl)c(Cl)c3)CC2)c2ccccc21 [compound 303] | 70% | 71% |
| CCNC(=O)OCCn1c(=O)n(CCCCN2CCN(c3ccccc3)CC2)c2ccccc21 [compound 75] | 54% | 67% |
| Cc1cccc(N2CCN(CCn3c(=O)n(CCNS(C)(=O)=O)c4ccccc43)CC2)c1 [compound 256] | 51% | 59% |
| O=c1n(CCN2CCCCC2)c2ccccc2n1CCN1CCN(c2cccc(C(F)(F)F)c2)CC1 [compound 149] | 35% | 88% |
| O=c1n(C/C=C\CN2CCN(c3ccc(Cl)c(Cl)c3)CC2)c2ccccc2n1CCO [compound 371] | 95% | 59% |
| O=c1n(C/C=C/CN2CCN(c3cccc(Cl)c3)CC2)c2ccccc2n1CCN1CCOCC1 [compound 348] | 51% | 99% |
| O=c1n(C/C=C\CN2CCc3c([nH]c4ccccc34)C2)c2ccccc2n1CCN1CCCCC1 [compound 316] | 94% | 72% |
| COCCn1c(=O)n(C/C=C/CN2CCN(c3ccccc3)CC2)c2ccccc21 [compound 293] | 32% | 89% |
| O=c1n(C/C=C/CN2CCN(c3ccccc3)CC2)c2ccccc2n1CCO [compound 378] | 35% | 77% |
